Results published in ChEMBL document CHEMBL5724914, “Linking interpersonal differences in gut microbiota composition and drug biotransformation activity” (2024).

Experiments:
[1] = human gut metagenome, 24 h, 2 µM
[2] = (§1) The drug is tested on Z-017 corresponding to mouse gut metagenome with ENA study accession number: PRJEB37062 and ENA sample accession number: ERS12561816 for biotransformation under anaerobic condition. The drug concentrations were measured over 9 timepoints collected between 0 and 24 hours of incubation by liquid-chromatography-coupled mass spectrometry (LC–MS); conditions: 2 µM
[3] = human gut metagenome, 24 h, 2 µM; remark: listed apart in the source
[4] = human gut metagenome, 24 h, 2 µM; remark: listed apart in the source
[5] = human gut metagenome, 24 h, 2 µM; remark: listed apart in the source
[6] = as §1, with “WLS-082” for “Z-017”, “human” for “mouse”, “ERS12561751” for “ERS12561816”; conditions: 2 µM
[7] = as §1, with “WLS-010” for “Z-017”, “human” for “mouse”, “ERS12561743” for “ERS12561816”; conditions: 2 µM
[8] = as §1, with “WLS-240” for “Z-017”, “human” for “mouse”, “ERS12561773” for “ERS12561816”; conditions: 2 µM
[9] = human gut metagenome, 24 h, 2 µM; remark: listed apart in the source
[10] = as §1, with “Z-025” for “Z-017”, “rabbit” for “mouse”, “ERS12561824” for “ERS12561816”; conditions: 2 µM
[11] = human gut metagenome, 24 h, 2 µM; remark: listed apart in the source
[12] = human gut metagenome, 24 h, 2 µM; remark: listed apart in the source
[13] = as §1, with “WLS-007” for “Z-017”, “human” for “mouse”, “ERS12561742” for “ERS12561816”; conditions: 2 µM
[14] = human gut metagenome, 24 h, 2 µM; remark: listed apart in the source
[15] = human gut metagenome, 24 h, 2 µM; remark: listed apart in the source
[16] = human gut metagenome, 24 h, 2 µM; remark: listed apart in the source
[17] = human gut metagenome, 24 h, 2 µM; remark: listed apart in the source
[18] = as §1, with “WLS-039” for “Z-017”, “human” for “mouse”, “ERS12561746” for “ERS12561816”; conditions: 2 µM
[19] = as §1, with “WLS-350” for “Z-017”, “human” for “mouse”, “ERS12561789” for “ERS12561816”; conditions: 2 µM
[20] = as §1, with “Z-010” for “Z-017”, “to” for “to mouse gut”, “ERS12561810” for “ERS12561816”; conditions: 2 µM
Note: call rule not given here.

Structure (SMILES) | Bacterial Biotransformation [1] | Bacterial Biotransformation [2] | Bacterial Biotransformation [3] | Bacterial Biotransformation [4] | Bacterial Biotransformation [5] | Bacterial Biotransformation [6] | Bacterial Biotransformation [7] | Bacterial Biotransformation [8] | Bacterial Biotransformation [9] | Bacterial Biotransformation [10] | Bacterial Biotransformation [11] | Bacterial Biotransformation [12] | Bacterial Biotransformation [13] | Bacterial Biotransformation [14] | Bacterial Biotransformation [15] | Bacterial Biotransformation [16] | Bacterial Biotransformation [17] | Bacterial Biotransformation [18] | Bacterial Biotransformation [19] | Bacterial Biotransformation [20]
CCC(COC(=O)c1cc(OC)c(OC)c(OC)c1)(c1ccccc1)N(C)C.O=C(O)/C=C\C(=O)O (stereo unspecified) | Compound NOT metabolized | Compound NOT metabolized | Compound metabolized | Compound NOT metabolized | Compound NOT metabolized | Compound metabolized | Compound NOT metabolized | Compound metabolized | Compound metabolized | Compound NOT metabolized | Compound metabolized | Compound NOT metabolized | Compound NOT metabolized | Compound NOT metabolized | Compound metabolized | Compound NOT metabolized | Compound metabolized | Compound NOT metabolized | Compound NOT metabolized | –
COc1ccc(CCN(C)CCCC(C#N)(c2ccc(OC)c(OC)c2)C(C)C)cc1OC (stereo unspecified) | Compound NOT metabolized | Compound NOT metabolized | Compound metabolized | Compound metabolized | Compound metabolized | Compound metabolized | Compound metabolized | Compound metabolized | Compound metabolized | Compound NOT metabolized | Compound metabolized | Compound NOT metabolized | Compound metabolized | Compound NOT metabolized | Compound metabolized | Compound metabolized | Compound metabolized | Compound metabolized | Compound metabolized | –
CC(O)(CS(=O)(=O)c1ccc(F)cc1)C(=O)Nc1ccc(C#N)c(C(F)(F)F)c1 (stereo unspecified) [BICALUTAMIDE] | Compound NOT metabolized | Compound NOT metabolized | Compound NOT metabolized | Compound NOT metabolized | Compound NOT metabolized | – | Compound NOT metabolized | Compound NOT metabolized | Compound NOT metabolized | Compound NOT metabolized | Compound NOT metabolized | Compound NOT metabolized | Compound NOT metabolized | Compound NOT metabolized | Compound NOT metabolized | Compound NOT metabolized | Compound NOT metabolized | Compound NOT metabolized | Compound NOT metabolized | Compound NOT metabolized
CCCC1O[C@@H]2C[C@H]3[C@@H]4CCC5=CC(=O)C=C[C@]5(C)[C@H]4[C@@H](O)C[C@]3(C)[C@]2(C(=O)CO)O1 (stereo partly specified) [BUDESONIDE] | Compound metabolized | Compound metabolized | Compound metabolized | Compound metabolized | Compound metabolized | – | Compound metabolized | Compound metabolized | Compound metabolized | Compound NOT metabolized | Compound metabolized | Compound NOT metabolized | Compound metabolized | Compound metabolized | Compound metabolized | Compound metabolized | Compound metabolized | Compound metabolized | Compound metabolized | Compound metabolized
O=C(NCc1ccccc1)OCCO [BURAMATE] | Compound NOT metabolized | – | Compound NOT metabolized | Compound NOT metabolized | Compound NOT metabolized | Compound NOT metabolized | Compound NOT metabolized | Compound NOT metabolized | Compound NOT metabolized | Compound NOT metabolized | Compound NOT metabolized | Compound NOT metabolized | Compound NOT metabolized | Compound NOT metabolized | Compound NOT metabolized | Compound NOT metabolized | Compound NOT metabolized | Compound NOT metabolized | Compound NOT metabolized | Compound NOT metabolized
CCCCCCOC(=O)/N=C(/N)c1ccc(NCc2nc3cc(C(=O)N(CCC(=O)OCC)c4ccccn4)ccc3n2C)cc1.CS(=O)(=O)O [DABIGATRAN ETEXILATE MESYLATE] | – | Compound NOT metabolized | Compound NOT metabolized | Compound NOT metabolized | Compound NOT metabolized | – | – | – | Compound NOT metabolized | Compound NOT metabolized | Compound NOT metabolized | – | – | – | Compound NOT metabolized | Compound metabolized | – | – | Compound NOT metabolized | Compound NOT metabolized
C[C@@H]1C[C@H]2[C@@H]3CCC4=CC(=O)C=C[C@]4(C)[C@@]3(F)[C@@H](O)C[C@]2(C)[C@@]1(O)C(=O)CO [DEXAMETHASONE] | Compound NOT metabolized | Compound NOT metabolized | Compound NOT metabolized | Compound NOT metabolized | Compound NOT metabolized | – | Compound metabolized | – | Compound NOT metabolized | Compound NOT metabolized | Compound NOT metabolized | Compound NOT metabolized | Compound NOT metabolized | Compound NOT metabolized | Compound NOT metabolized | Compound NOT metabolized | Compound NOT metabolized | Compound NOT metabolized | Compound NOT metabolized | Compound NOT metabolized
c1ccc([C@H]2CN3CCSC3=N2)cc1 [LEVAMISOLE] | Compound NOT metabolized | Compound NOT metabolized | Compound metabolized | Compound metabolized | Compound metabolized | – | – | Compound metabolized | Compound metabolized | Compound NOT metabolized | Compound metabolized | Compound NOT metabolized | Compound metabolized | Compound metabolized | Compound metabolized | – | Compound metabolized | Compound metabolized | Compound metabolized | –
C#C[C@]1(O)CC[C@H]2[C@@H]3CCC4=CC(=O)CC[C@@H]4[C@H]3CC[C@@]21CC [LEVONORGESTREL] | Compound metabolized | Compound metabolized | Compound metabolized | Compound metabolized | Compound metabolized | Compound metabolized | – | – | Compound metabolized | Compound metabolized | Compound NOT metabolized | Compound NOT metabolized | Compound metabolized | Compound metabolized | – | Compound metabolized | Compound metabolized | Compound metabolized | Compound metabolized | –
